In brackets after ≈: the same amount, converted by molar mass.
Experiments:
Assay type in all cases: cell-based
in vitro = settings: monkey, vero cells
Description: (§1) Antiviral activity for each component of BU-4224V was evaluated by the dye uptake and the plaque reduction assay using herpes simplex virus type 1 (KOS strain) infection in Vero cells. In the dye uptake assay, 200 μl of the Vero cell suspension containing 1.6×10^4 cells was poured into each well of 96-well microplates, and then 50 μl of medium containing a test compound at various concentrations was added to each well. The viral suspension (50 μl ) containing approximately 30X TCID50 was inoculated to each well. For cytotoxicity tests, the same set of wells without viruses were prepared. After incubation at 37° C. for 72 hours under the humidified 5% CO2 -95% air environment, the degree of inhibition of the virus-induced cytopathic effect and the drug-induced cytotoxicity were determined by means of the uptake of neutral red. […] Acyclovir was used as a reference compound of anti-HSV activity. The antiviral activity of BU-4224V was also evaluated by the conventional plaque reduction assay method using a 24-well microplate.

[1] = Minimal toxic dose in the plaque reduction assay; settings: monkey, HSV-Vero cells, read-out: MTD (minimal toxic dose)
Description: as §1

[2] = test system: herpes simplex virus type 1 (KOS strain); experiment: Plaque reduction assay, HSV-1 infection in Vero cells; settings: Human alphaherpesvirus 1, HSV-1, Vero cells, read-out: ID50 (the source's name)
Description: as §1

[3] = test system: herpes simplex virus type 1 (KOS strain); experiment: Dye uptake assay, HSV-1 infection in Vero cells; settings: Human alphaherpesvirus 1, HSV-1, Vero cells, 72 hours, read-out: ID50 (the source's name)
Description: as §1

SMILES: Nc1nc2c(ncn2COCCO)c(=O)[nH]1 [Acyclovir]
- CC50 at 72 h (in vitro): > 100 µg/mL
- MCC [1]: > 100 µg/mL
- IC50 [2]: 0.27 µg/mL (≈ 1.2 µM)
- IC50 [3]: 0.09 µg/mL (≈ 0.4 µM)

— patent US5466450A, “Antiviral antibiotic BU-4224V” (priority 1993, dated 1995)
